Source: US20040204423A1, “Crystalline antifungal polymorph” (priority 1997, published 2004)

Assay: Solid-state stability of polymorph Form I: conversion into other forms under normal storage and stress conditions
Type: physicochemical
Text: The three crystalline polymorphic forms of the compound of formula designated as Form 1, II and III can readily be distinguished from one another by examination of the characteristic x-ray Diffraction patterns (see FIGS. 1-3), the characteristic infrared spectra (see FIGS. 4-6) and the characteristic Differential Scanning Calorimetry ([…]) thermograms (FIGS. 7-9).

conversion into any other form (normal storage conditions (15′-30° C. and protected from light)): did not convert into any other form
conversion into any other form (stress condition: 75% relative humidity at 40° C. for 6 weeks): did not convert into any other form
conversion into any other form (stress condition: 75° C. for 6 weeks): did not convert into any other form
conversion into any other form (stress condition: 97% relative humidity at ambient temperature for 2 minutes): did not convert into any other form
conversion into any other form (stress condition: 150° C. for 2 hours): did not convert into any other form
SMILES: CCC([C@H](C)O)n1ncn(-c2ccc(N3CCN(c4ccc(OC[C@@H]5CO[C@@](Cn6cncn6)(c6ccc(F)cc6F)C5)cc4)CC3)cc2)c1=O (single isomer, unassigned; (-)) [Form 1]
